“Also recorded” adds a separate entry of the source.

From patent publication US10112978B2, “Peptide and use thereof” (OSAKA UNIVERSITY, priority 2014, dated 2018) come the findings set out here.

One experiment relates to THP-1 cells. Briefly: CD86 and CD54 expression in THP-1 cells (flow cytometry, RFI). It is filed as cell-based, human. The following applies: overnight culture, relative fluorescence intensity. On the procedure:
THP-1 cells were seeded at a density of 2.0×10^5 cells/mL in 50 mL of RPMI1640 medium containing 10% FBS and 0.05 mM mercaptoethanol in a 75-cm^2 flask, and precultured for 48 hours.
The precultured THP-1 cells were harvested by centrifugation and suspended at 2.0×10^6 cells/mL in RPMI1640 medium containing 10% FBS and 0.05 mM mercaptoethanol, and the cell suspension was added to a 24-well plate at 500 μL/well. Test peptides were separately dissolved in the same medium as above, and 500 μL of each of the solutions was added to separate wells containing the cell suspension.
After overnight culture, the cells were harvested by centrifugation and washed twice with PBS containing 0.1% BSA (FACS buffer). The cells were then dispersed in 600 μL of FACS buffer containing 0.01% human γ-globulin solution (Sigma, G2388), and incubated at 4° C. for 10 minutes for blocking of Fc receptors.
After that, the cell suspension was divided into three 180-μL aliquots in 1.5-mL tubes, the tubes were centrifuged, and the cell pellets were prepared for the reaction with antibodies. To the cell pellets, FITC-labeled antibody solutions separately diluted to appropriate concentrations in FACS buffer were added in a volume of 50 μL, and incubation was performed at 4° C. for 30 minutes. The antibodies used were CD86 antibody (Pharmingen; Cat#555657), CD54 antibody (Dako; Cat# F7143) and isotype control (Mouse IgG) antibody (Dako; Cat#X0927). After the 30-minute incubation, the cells were harvested by centrifugation and washed twice with FACS buffer. The cells harvested by centrifugation were dispersed in 200 μL of FACS buffer containing 0.625 μg/mL propidium iodide, and the expression levels of the cell surface antigens on 1×10^4 viable cells were measured by flow cytometry. Forward and side scatter gating was not used for the analysis, and the relative fluorescence intensity (RFI) was calculated from the measured mean fluorescence intensities (MFI) by the following formula. […]
When the viability of the non-treated control cells (vehicle treatment cells) was 90% or more, the test was considered valid. In the case where the cell viability at a particular sample concentration used in the test was lower than 50%, the data of the CD54 level at the concentration was excluded from the evaluation.
A general note: In flow cytometry, cells or beads pass a laser one at a time.

Another experiment relates to beagles. Briefly: Adjuvant effect in dogs (anti-Ang II antibody titer after Ang II-KLH vaccine). Type of experiment: in vivo. The following applies: Ang II-KLH 25 μg/animal + OSK-1 500 μg/animal intracutaneously twice at a 2-week interval. How it is done: The adjuvant effect of OSK-1 was compared with that of the conventional Freund's adjuvant in dogs. Ang II-KLH (angiotensin II-keyhole limpet hemocyanin) as a vaccine (25 μg/animal) and OSK-1 (500 μg/animal) or Freund's adjuvant (250 μL/animal) as an adjuvant were intracutaneously administered to beagles twice at a 2-week interval (2 animals per group). For the Freund's adjuvant group, complete Freund's adjuvant was used at the first administration, and incomplete Freund's adjuvant was used at the second administration. Blood was drawn before the first administration and 2 and 4 weeks after the first administration, and the anti-Ang II antibody titer was measured.
The serum separated from the blood was serially diluted in 5% skim milk/PBS, and the diluted sera were added to an Ang II-BSA-coated 96-well ELISA plate. The plate was allowed to stand at 4° C. overnight. The wells were washed with PBS-T, an HRP-labeled anti-mouse IgG antibody diluted in 5% skim milk/PBS was added to the wells. The plate was incubated with agitation at room temperature for 3 hours. The wells were washed with PBS-T, and a TMB solution was added to the wells. The plate was allowed to stand under protection from light for 30 minutes, and 0.5 N H2SO4 was added to the wells to stop the reaction. The absorbance at 450 nm was measured and used for antibody titer comparison.

Experiment [1] relates to mouse bone marrow-derived dendritic cells. Briefly: Cytokine production in mouse bone marrow-derived dendritic cells (ELISA). Type of experiment: cell-based. The following applies: about 16 hours. How it is done: Bone marrow cells were harvested from the thigh bone of a C57BL/6 mouse, seeded in RPMI1640 medium containing […] GM-CSF (granulocyte macrophage colony-stimulating factor) and 10% FBS, and cultured for 3 days. After the 3-day culture, a fresh medium was added and culture was continued for additional 4 days. The cells not adherent on the culture plate were harvested and regarded as bone marrow-derived dendritic cells. The cells were suspended at 2×10^6 cells/mL in RPMI1640 medium containing 10% FBS, and the cell suspension was added to a 24-well plate at 500 μL/well. An OSK-1 solution was prepared at a 2-fold higher concentration than the final concentration in RPMI1640 medium containing 10% FBS and added to the plate at 500 μL/well. After about 16 hours, the culture supernatant was harvested, and the cytokine concentrations in the supernatant were measured by ELISA.
A general note: ELISA stands for enzyme-linked immunosorbent assay.

In another experiment the test system is NFκB. Briefly: Activation of NFκB in THP-1 cells (TNFα production with or without NFκB inhibitors). The following applies: for production of TNFα: OSK-1 100 ng/mL. It is filed as cell-based, human. On the procedure:
THP-1 cells were diluted to 5×10^5 cells in 500 μL of RPMI1640 medium containing 10% FBS, and the cell suspension was added to a 24-well plate at 500 μL/well. QNZ (Enzo, final concentration: 10 μM) in RPMI1640 medium containing 10% FBS, BAY11-7082 (Enzo, final concentration: 10 μM) in RPMI1640 medium containing 10% FBS and RPMI1640 medium containing 10% FBS were added to the plate, and the cells were cultured for 2.5 hours. OSK-1 was added to the wells at a final concentration of 100 ng/mL, and the cells were cultured for 2 hours. After that, the culture supernatant was harvested, and the TNFα concentration in the supernatant was measured by ELISA.

The next experiment concerns C3H/HeN mice. Briefly: Hair-growth effect in shaved mice. Type of experiment: in vivo. On the procedure: The dorsal skin of 8-week-old male C3H/HeN mice in the resting phase of the hair cycle was shaved using a hair clipper and a shaver with caution to avoid damage to the skin. The shaved area was 2×4 cm. To the shaved area, 100 μL of a 0.02% (w/v), 0.1% (w/v) or 0.5% (w/v) OSK-1 solution was applied once daily for 14 days starting from 3 days after the shaving. For the control group, physiological saline was applied, and for the positive control group, 3% (w/v) minoxidil was applied. The day of shaving was designated as Day 0. On Day 3, Day 7, Day 10, Day 14 and Day 17, the percentage of the area of hair regrowth relative to the entire shaved area in each mouse was scored according to the following criteria: 0% was defined as score 0, 20% or less was defined as score 1, 40% or less was defined as score 2, 60% or less was defined as score 3, 80% or less was defined as score 4, and 100% or less was defined as score 5. In addition, 10 strands of newly grown hair in the shaved area of each mouse were pulled out on Day 17, the length of each strand of newly grown hair was measured under a stereomicroscope, and the measured lengths were summed as the hair length (mm) of each animal.

With “ELKLIFLHRLKRLRKRLKRK (Ac-ELKLIFLHRLKRLRKRLKRK-NH2) [OSK-1]”, the “expression of CD54” value in the experiment with THP-1 cells was “strongly induced; also recorded: comparable or superior to that of muramyl dipeptide (MDP); also recorded: more highly active for inducing CD54 expression than SR-07 and SR-08”. The “expression of CD86” value in the experiment with THP-1 cells is “strongly induced; also recorded: comparable or superior to that of muramyl dipeptide (MDP)”. Moreover, the “anti-Ang II antibody titer” value in the experiment on beagles is on record as “increase in the anti-Ang II antibody titer was observed”. The “production of the cytokines (IL-1β, IFNγ, TNFα, IL-6 and IL-12p70)” value in experiment [1] is listed as “induced the production of the cytokines in the mouse bone marrow-derived dendritic cells in an OSK-1 concentration dependent manner”. Also, the “production of TNFα” value in the experiment on NFκB (2 hours) is on record as “induced the production of TNFα”; with NFκB (in the presence of NFκB inhibitor BAY11-7082 10 μM) it was “inhibited in the presence of the NFκB inhibitor QNZ or BAY11-7082”; in the experiment with NFκB (in the presence of NFκB inhibitor QNZ 10 μM), “inhibited in the presence of the NFκB inhibitor QNZ”. For the same sequence, in the experiment on NFκB (concluded from TNFα production with and without NFκB inhibitors), the “activating NFκB” value is “effective for activating NFκB”. In addition, the hair length result with C3H/HeN mice (0.5% OSK-1 group, Day 17, compared with 3% minoxidil group) is “almost comparable to those in the 3% minoxidil group”. Also, the hair regrowth score result in the experiment with C3H/HeN mice (0.5% OSK-1 group, compared with 3% minoxidil group) is recorded as “almost comparable to those in the 3% minoxidil group”. Further, the hair growth result in the experiment with C3H/HeN mice (100 μL of 0.02%, 0.1% or 0.5% (w/v) solution on shaved dorsal skin once daily for 14 days) is given as “promote hair growth in a concentration dependent manner”.
